Laboratory results from patent US20060241037A1, “Compositions comprising trefoil factor family peptides and/or mucoadhesives and proton pump ihhibitor prodrugs” (ALLERGAN INC., priority 2003, published 2006).

Legend:
[1] = tested on: Caco-2 cells; test: Membrane permeability (Papp) across Caco-2 cell monolayer, apical to basolateral; type: in vitro ADME; conditions: Caco-2, apical to basolateral, 10 μM, 37° C.
Description: Determination of membrane permeability in all examples described herein was accomplished by the following procedure. This procedure is also used to determine whether a given prodrug falls within the scope of those claims given herein which relate to membrane permeability.
Caco-2 cells were seeded on Costar™ 12 mm diameter, 0.4 μm pore size transwell filters, and were cultured at 37° C., 5% CO2 in a humidified tissue culture chamber.
DMEM was equilibrated as a transport buffer in 37° C. water bath an hour before experiment. The cells were then equilibrated in transport buffer for 1 hr at 37° C.
Dosing solution (10 μM) was prepared by adding a 20 μL aliquot of a 10 mM stock solution of the prodrug to 20 mL of transport buffer.
Transport across Caco-2 cell monolayer was measured at 37° C., in the apical to basolateral direction (n=3).
Transport buffer was removed from both apical and basolateral compartment of filters. Dosing solution (0.2 mL) was added to the apical compartment of the cell layers on transwell filters, and 0.8 ml fresh pre-warmed transport buffer was added to basolateral compartment. Timing was started for transport, and at 5, 20, and 60 min after transport started, sample fluid (400 μL) was collected from the basolateral compartment. Fresh transport buffer (400 μL) was added back to the basolateral compartment, and the fluid was thoroughly mixed.
The apparent permeability coefficient (Papp, cm/sec), otherwise known herein as the membrane permeability, is determined from the following relationship: Papp=J/(ACo) where J (pmol/min) is the transport rate, meaning the rate of prodrug movement through the cell layer, A (cm^2) is the filter surface area, and Co (μM) is the initial dosing concentration.
Lucifer yellow (LY) was used as a paracellular permeability reference standard to determine integrity of cell layers used in the experiments. […] Fluorescence level in basolateral fluid sampled at 5, 20, and 60 min post dose was determined using Fluostar Galaxy (BMG Labtechnologies, Durham, N.C.) at excitation/emission wavelengths of 485/520 nm. […]

[2] = Pharmacokinetic study in rats (oral / intravenous), systemic half-life by LC-MS/MS; type: in vivo, rats (Sprague-Dawley); set-up: key to T1/2 Prodrug: NC: plasma concentration of prodrug was too low to calculate half-life, or undetected; conditions: Rat, SD in parenthesis; for T1/2 Prodrug: systemic half-life of intact prodrug; for T1/2 PPI: systemic half-life of the proton pump inhibitor
Description: (§1) Blood concentrations of the compounds omeprazole, lansoprazole, pantoprazole, rabeprazole, and test compounds were quantified using an achiral liquid chromatography tandem mass spectrometry method (LC-MS/MS). Systemic pharmacokinetic parameters were determined for omeprazole or lansoprazole using non-compartmental analysis in Watson® version 6.3, available from InnaPhase Corporation, Philadelphia, Pa.

[3] = Pharmacokinetic study in dogs (oral / intravenous), systemic half-life by LC-MS/MS; type: in vivo, dogs (beagle); set-up: key to T1/2 Prodrug: NC: plasma concentration of prodrug was too low to calculate half-life, or undetected; conditions: for T1/2 Prodrug / T1/2 PPI / half-life: Dog, SD in parenthesis; for T1/2 Prodrug: systemic half-life of intact prodrug; for T1/2 PPI / half-life: systemic half-life of the proton pump inhibitor; for t1/2: systemic half-life of parent PPI in dogs after oral administration; for half-life: beagle, blood, po, read-out: T1/2 PPI (converted)
Description: as §1

Row | T1/2 Prodrug [2] | T1/2 PPI ([2]; in h) | T1/2 Prodrug [3] | T1/2 PPI [3] | SMILES | further results
1 |  |  | 31.6 min | 91.2 min | COCCCOc1ccnc(C[S+]([O-])c2nc3ccccc3n2S(=O)(=O)c2c(C)cc(OCC(=O)O)cc2C)c1C (stereo not shown) [Compound 32] | 
2 |  |  | 44.8 min | 53.6 min | COCCCOc1ccnc(C[S+]([O-])c2nc3ccccc3n2S(=O)(=O)c2ccc(C(=O)O)cc2)c1C (stereo not shown) [Compound 33] | 
3 | NC | 1.11 (0.71) |  |  | Cc1cc(OCC(=O)O)cc(C)c1S(=O)(=O)n1c([S+]([O-])Cc2nccc(OCC(F)(F)F)c2C)nc2ccccc21 (stereo not shown) [Compound 34] | 
4 | NC | 1.84 (0.87) |  |  | Cc1c(OCC(F)(F)F)ccnc1C[S+]([O-])c1nc2ccccc2n1S(=O)(=O)c1ccc(OCC(=O)O)c(OCC(=O)O)c1 (stereo not shown) [Compound 35] | 
5 | NC | 0.389 (0.085) |  |  | Cc1c(OCC(F)(F)F)ccnc1C[S+]([O-])c1nc2ccccc2n1S(=O)(=O)c1ccc(C(=O)O)cc1 (stereo not shown) [Compound 36] | 
6 | NC | 2.19 (0.80) |  |  | Cc1cc(C(=O)O)ccc1S(=O)(=O)n1c([S+]([O-])Cc2nccc(OCC(F)(F)F)c2C)nc2ccccc21 (stereo not shown) [Compound 37] | 
7 |  | 1.43 (0.42) |  |  | COc1ccc(S(=O)(=O)n2c([S+]([O-])Cc3nccc(OCC(F)(F)F)c3C)nc3ccccc32)cc1CCC(=O)O (stereo not shown) [Compound 38] | T1/2 Prodrug ([2]; in h): 1.04 (0.35)

Further lines, the compound ahead of its results:

Row | SMILES | T1/2 Prodrug [2] | T1/2 PPI ([2]; in h) | T1/2 Prodrug [3] | T1/2 PPI [3] | further results
8 | Cc1c(OCC(F)(F)F)ccnc1C[S+]([O-])c1nc2ccccc2n1S(=O)(=O)c1cccc(C(=O)O)c1 (stereo not shown) [Compound 7] | NC | 1.93 (1.41) | 12.4 min | 53.6 min | Permeability [1]: 0.16 ×10⁻⁶ cm/s; t1/2 [3]: 53.4 min
9 | COc1ccc(S(=O)(=O)n2c([S+]([O-])Cc3nccc(OCC(F)(F)F)c3C)nc3ccccc32)cc1C(=O)O (stereo not shown) [Compound 8] | NC | 1.80 (1.20) | NC | 64.8 min | Permeability [1]: 0.23 ×10⁻⁶ cm/s; t1/2 [3]: 66 min
10 | Cc1c(OCC(F)(F)F)ccnc1C[S+]([O-])c1nc2ccccc2n1S(=O)(=O)c1ccc(CC(=O)O)cc1 (stereo not shown) [Compound 9] | NC | 0.341 (0.151) | NC | 53.6 min | Permeability [1]: 0.34 ×10⁻⁶ cm/s; t1/2 [3]: 53.4 min
11 | Cc1c(OCC(F)(F)F)ccnc1C[S+]([O-])c1nc2ccccc2n1S(=O)(=O)c1ccc(OCC(=O)O)cc1 (stereo not shown) [Compound 10] |  |  | NC | 0.989 (0.307) | 
12 | Cc1c(OCC(F)(F)F)ccnc1C[S+]([O-])c1nc2ccccc2n1S(=O)(=O)c1ccc(OCC(C)(C)C(=O)O)cc1 (stereo not shown) [Compound 11] | NC | 0.933 (1.009) | NC | 0.873 (0.288) | 
13 | Cc1c(OCC(F)(F)F)ccnc1C[S+]([O-])c1nc2ccccc2n1S(=O)(=O)c1ccc(CC(=O)O)c(CC(=O)O)c1 (stereo not shown) [Compound 12] |  |  | NC | 55.9 min | 
14 | Cc1ccc(C(=O)O)cc1S(=O)(=O)n1c([S+]([O-])Cc2nccc(OCC(F)(F)F)c2C)nc2ccccc21 (stereo not shown) [Compound 13] | NC | 2.35 (1.22) | 7.32 min | 106 min | 
15 | COc1ccc(C(=O)O)cc1S(=O)(=O)n1c([S+]([O-])Cc2nccc(OCC(F)(F)F)c2C)nc2ccccc21 (stereo not shown) [Compound 14] |  | 0.536 (0.217) | 7.08 min | 83.4 min | 
16 | Cc1c(OCC(F)(F)F)ccnc1C[S+]([O-])c1nc2ccccc2n1S(=O)(=O)c1ccc(CC(=O)O)cc1C(C)C (stereo not shown) [Compound 15] |  |  | NC | 55.4 min | 
17 | Cc1c(OCC(F)(F)F)ccnc1C[S+]([O-])c1nc2ccccc2n1S(=O)(=O)c1ccc(C(=O)O)c(OCC(=O)O)c1 (stereo not shown) [Compound 16] | NC | 1.86 (0.74) | NC | 60 min | 
18 | Cc1cc(OCC(=O)O)cc(C(C)C)c1S(=O)(=O)n1c([S+]([O-])Cc2nccc(OCC(F)(F)F)c2C)nc2ccccc21 (stereo not shown) [Compound 17] |  |  | 89.4 min | 67.8 min | 
19 | Cc1c(OCC(F)(F)F)ccnc1C[S+]([O-])c1nc2ccccc2n1S(=O)(=O)c1ccc(C(=O)O)cc1 (stereo not shown) [Compound 18] |  |  | 5.39 min | 54.5 min | 
20 | Cc1ccc(S(=O)(=O)n2c([S+]([O-])Cc3nccc(OCC(F)(F)F)c3C)nc3ccccc32)cc1CCC(=O)O (stereo not shown) [Compound 19] |  |  | 110 min | 29 min | 
21 | COCCCOc1ccnc(C[S+]([O-])c2nc3ccccc3n2S(=O)(=O)c2cccc(C(=O)O)c2)c1C (stereo not shown) [Compound 30] |  |  | 67.2 min | 29.5 min | 
22 | COCCCOc1ccnc(C[S+]([O-])c2nc3ccccc3n2S(=O)(=O)c2cc(C(=O)O)ccc2C)c1C (stereo not shown) [Compound 31] |  |  | 50.6 min | 51.3 min | 
23 | Cc1c(OCC(F)(F)F)ccnc1C[S+]([O-])c1nc2ccccc2[nH]1 (stereo not shown) [Lansoprazole, reference compound] |  |  |  |  | half-life [3]: 34.4 min; t1/2 [3]: 34.2 min
24 | COc1ccc2[nH]c([S+]([O-])Cc3ncc(C)c(OC)c3C)nc2c1 (stereo not shown) [Omeprazole, reference compound] |  |  |  |  | half-life [3]: 41.8 min; t1/2 [3]: 42 min
